Laboratory results from patent publication US4960771A, “Oxazolidinone penetration enhancing compounds” (priority 1988, dated 1990).
Counter-ions that a name gives are not always drawn. Like-named read-outs stand apart in the source and are kept apart here.

Columns and labels:
Murine Erythroleukemia = details: Li et al., J. Med. Chem. 24, 1089 (1981); cited from earlier work
[1] = 0.8% Clonidine; 75.2% compound + 25% isopropyl myristate vs 99.2% compound vs 99.2% DMSO; cited from earlier work
[2] = 1% Diazepam in 74% ethanol and 25% compound; cited from earlier work
[3] = for Average Cumulative Amount of ISDN in Micrograms permeating over 51 hours: cream; for permeation enhancing properties (conclusion in words): ISDN cream, 51 hours
[4] = Permeation of Diltiazem hydrochloride (DZ) from cream through human stratum corneum (Example 35); assay type: in vitro ADME
Description: (§1) Sci. 75, 1094 (1986). […] All formulations were studied in triplicate.

[5] = assay type: in vitro ADME, human
Description: as §1
The Indomethacin (INDO) gel formulation used in Example 32 was prepared as follows.

[6] = Permeation of Morphine Sulfate (MS) from transdermal patch through human stratum corneum (Example 33); assay type: in vitro ADME
Description: as §1
The procedure of Example 29 was repeated with Morphine Sulfate (MS) formulations incorporated in a transdermal patch.

[7] = assay type: in vitro ADME, human; details: for Average Cumulative Amount of PG in Micrograms permeating over 51 hours: patch, releasing media 30% ethanol in normal saline
Description: as §1
The procedure of Example 29 was repeated with Progesterone (PG) incorporated in transdermal patch formulations. The releasing media contained 30% ethanol in normal saline.

[8] = assay type: in vitro ADME, human; remark: listed apart in the source
Description: as §1

[9] = cream
[10] = for Average Cumulative Amount of ISDN in Micrograms permeating over 51 hours: patch
[11] = for permeation enhancing properties (conclusion in words): ISDN cream, vs control; for Average Cumulative Amount of ISDN in Micrograms permeating over 51 hours: cream, 1% ISDN + 1% enhancer
[12] = Ishihara, C.A. 105: 48896 k (1986); cited from earlier work
[13] = cited from earlier work
[14] = Barry et al., J. Pharm. Pharmacol. 37, 226 (1985); cited from earlier work

## CCCCN1CCCN(CCCC)C1=O [1,3-dibutyltetrahydropyrimidin-2-one, 1,3-dibutyltetrahydro-pyrimidin-2-ones]
Murine Erythroleukemia
  inducers of Murine Erythroleukemia differentiation: inducers of Murine Erythroleukemia differentiation

## CCN1CCCN(CC)C1=O [1,3-diethyltetrahydropyrimidin-2-one, 1,3-diethyl]
Murine Erythroleukemia
  inducers of Murine Erythroleukemia differentiation: inducers of Murine Erythroleukemia differentiation

## CN1CCN(C)C1=O [1,3-dimethylimidazolidin-2-one]
[1]
  tail arterial blood pressure: no significant differences in tail arterial blood pressure in rats

## CCCCCN1CCN(CCCCC)C1=O [1,3-dipentylimidazolidin-2-one]
[2]
  drug transport when combined with a polar substance such as ethanol: potentiates the drug transport

## CCCCCCCCCCCCN1CCCCCC1=O [1-Dodecylhexahydro-2H-azepin-2-one, 1-Dodecyl-hexahydro-2H-azepin-2-one, reference compound]
[3]; 1% ISDN + 1.4% enhancer
  Average Cumulative Amount of ISDN in Micrograms permeating over 51 hours: 709 ± 170 Micrograms

## COc1ccc([C@@H]2Sc3ccccc3N(CCN(C)C)C(=O)[C@@H]2OC(C)=O)cc1 [DZ, Diltiazem hydrochloride, reference compound]
[4]; 5% DZ, no enhancer (Control)
  Average Cumulative amount of DZ in Micrograms permeating over 24 hours: 125.3 ± 37 Micrograms

## CCCCCCCCCCC1COC(=O)N1 (centres unmarked) [Example 1, 4-Decyloxazolidin-2-one]
[5]; INDO gel and cream
  advantage of incorporating enhancer (conclusion in words): clearly show the advantage of incorporating enhancer
[5]; cream, 1% INDO + 1% enhancer
  Average Cumulative Amount of INDO in Micrograms permeating over 51 hours: 128 ± 6.1 Micrograms
[5]; gel, 1% INDO + 1% enhancer
  Average Cumulative Amount of INDO in Micrograms permeating over 51 hours: 370.9 ± 56 Micrograms
[6]; MS patch
  superiority of patch formulation containing enhancer (conclusion in words): superiority of the transdermal patch formulation
[6]; patch, 5% MS + 1% enhancer
  Average Cumulative Amount of MS in Micrograms permeating over 51 hours: 622 ± 81.6 Micrograms
[7]; PG patch
  superiority of transdermal patch containing enhancer (conclusion in words): superiority of the transdermal patch
[7]; 3% PG + 5% enhancer
  Average Cumulative Amount of PG in Micrograms permeating over 51 hours: 434 ± 135 Micrograms
[4]; 5% DZ + 3% enhancer
  Average Cumulative amount of DZ in Micrograms permeating over 24 hours: 303.0 ± 79.1 Micrograms
[4]; vs control
  permeation of Diltiazem hydrochloride through the skin (conclusion in words): improves the permeation of Diltiazem hydrochloride through the skin significantly over the control
[8]; cream and patch, vs control
  permeation enhancement of Nicotine (conclusion in words): enhances the permeation significantly over control
[8]; cream, 1% Nicotine + 3% enhancer
  Average Cumulative Amount of Nicotine in Micrograms permeating over 51 hours: 2002.0 ± 74.0 Micrograms
[8]; cream, 5% Nicotine + 3% enhancer
  Average Cumulative Amount of Nicotine in Micrograms permeating over 51 hours: 8497.2 ± 1195 Micrograms
[8]; patch, 5% Nicotine + 3% enhancer
  Average Cumulative Amount of Nicotine in Micrograms permeating over 51 hours: 208.1 ± 23.6 Micrograms
[8]; patch, 10% Nicotine + 3% enhancer
  Average Cumulative Amount of Nicotine in Micrograms permeating over 51 hours: 3520.0 ± 139.0 Micrograms
[3]
  permeation enhancing properties (conclusion in words): superior permeation enhancing properties as compared to control and a known permeation enhancer
[3]; 1% ISDN + 1.4% enhancer
  Average Cumulative Amount of ISDN in Micrograms permeating over 51 hours: 1275 ± 104 Micrograms
[9]; 0.5% HC + 1% enhancer
  Average Cumulative Amount of HC in Micrograms permeating over 24 hours: 4.970 ± 0.79 Micrograms
[9]; vs control and commercial formulation
  permeation of HC (conclusion in words): superior permeation as compared to control cream and to a commercial formulation with higher quantity of drug
[10]; 3% ISDN (60%) + 8% enhancer
  Average Cumulative Amount of ISDN in Micrograms permeating over 51 hours: 1438.4 ± 174 Micrograms
[10]; 3% ISDN (100%) + 3% enhancer
  Average Cumulative Amount of ISDN in Micrograms permeating over 51 hours: 1355.8 ± 262.5 Micrograms
[10]; vs control
  permeation of ISDN from the transdermal patch (conclusion in words): superior to the control

## CCCCCCCCCCC1COC(=O)N1C (centres unmarked) [Example 2, 3-methyl-4-decyloxazolidin-2-one]
[3]
  permeation enhancing properties (conclusion in words): superior permeation enhancing properties as compared to control and a known permeation enhancer
[3]; 1% ISDN + 1.6% enhancer
  Average Cumulative Amount of ISDN in Micrograms permeating over 51 hours: 1020 ± 69 Micrograms

## CCCCCCCCCCC1COC(=O)O1 (centres unmarked) [Example 10, 4-decyl-1,3-dioxolan-2-one]
[11]
  permeation enhancing properties (conclusion in words): superior permeation enhancing properties as compared to control
  Average Cumulative Amount of ISDN in Micrograms permeating over 51 hours: 1174.5 ± 37.2 Micrograms

## CCCCN1C(=O)N(CCC)C(OCC)C1OCC (centres unmarked) [Example 12, 4,5-diethoxy-1-butyl-3-propylimidazolidin-2-one]
[11]
  permeation enhancing properties (conclusion in words): superior permeation enhancing properties as compared to control
  Average Cumulative Amount of ISDN in Micrograms permeating over 51 hours: 1057.7 ± 12.0 Micrograms

## CCCCCCCCOC1C(OCCCCCCCC)N(C)C(=O)N1C (centres unmarked) [Example 15, 4,5-dioctyloxy-1,3-dimethylimidazolidin-2-one]
[11]
  permeation enhancing properties (conclusion in words): superior permeation enhancing properties as compared to control
  Average Cumulative Amount of ISDN in Micrograms permeating over 51 hours: 1175.6 ± 33.6 Micrograms

## CCOCCCN1CCOC1=O [Example 16, 3-(3-ethoxypropyl)oxazolidin-2-one]
[11]
  permeation enhancing properties (conclusion in words): superior permeation enhancing properties as compared to control
  Average Cumulative Amount of ISDN in Micrograms permeating over 51 hours: 1110.9 ± 84.1 Micrograms

## CCCCCCCCOCCN1CCOC1=O [Example 18, 3-(2-octyloxyethyl)oxazolidin-2-one]
[11]
  permeation enhancing properties (conclusion in words): superior permeation enhancing properties as compared to control
  Average Cumulative Amount of ISDN in Micrograms permeating over 51 hours: 1185.1 ± 94.7 Micrograms

## CCCCCCCCCCCC1CNC(=O)N1 (centres unmarked) [Example 19, 4-undecylimidazolidin-2-one]
[11]
  permeation enhancing properties (conclusion in words): superior permeation enhancing properties as compared to control
  Average Cumulative Amount of ISDN in Micrograms permeating over 51 hours: 1318.4 ± 21.6 Micrograms

## CCCCN1C(=O)OCC1Cc1ccccc1 (centres unmarked) [Example 20, 3-butyl-4-benzyloxazolidin-2-one]
[11]
  permeation enhancing properties (conclusion in words): superior permeation enhancing properties as compared to control
  Average Cumulative Amount of ISDN in Micrograms permeating over 51 hours: 1147.7 ± 36.0 Micrograms

## CCCCCCCCCCCC1CN(C)C(=O)N1C (centres unmarked) [Example 21, 1,3-dimethyl-4-undecylimidazolidin-2-one]
[11]
  permeation enhancing properties (conclusion in words): superior permeation enhancing properties as compared to control
  Average Cumulative Amount of ISDN in Micrograms permeating over 51 hours: 1257.0 ± 137.0 Micrograms

## CCCCN1CCN(CCOCC)C1=O [Example 22, 1-butyl-3-(2-ethoxyethyl)imidazolidin2-one]
[11]
  permeation enhancing properties (conclusion in words): superior permeation enhancing properties as compared to control
  Average Cumulative Amount of ISDN in Micrograms permeating over 51 hours: 1091.2 ± 125.0 Micrograms

## COc1ccc2c(c1)c(CC(=O)O)c(C)n2C(=O)c1ccc(Cl)cc1 [INDO, Indomethacin, reference compound]
[5]; cream, 1% INDO, no enhancer
  Average Cumulative Amount of INDO in Micrograms permeating over 51 hours: 72 ± 9 Micrograms
[5]; gel, 1% INDO, no enhancer (Control)
  Average Cumulative Amount of INDO in Micrograms permeating over 51 hours: 304.8 ± 20 Micrograms

## CC(=O)[C@H]1CC[C@H]2[C@@H]3CCC4=CC(=O)CC[C@]4(C)[C@H]3CC[C@]12C [PG, Progesterone, reference compound]
[7]; 3% PG, no enhancer (Control)
  Average Cumulative Amount of PG in Micrograms permeating over 51 hours: 86 ± 61 Micrograms

## O=C1OCCO1 [ethylene carbonate, 1,3-dioxolan-2-one]
[12]
  efficacy on addition to the composition: did not improve the efficacy

## CC1COC(=O)O1 (centres unmarked) [propylene carbonate, 4-methyl-1,3-dioxolan-2-one]
[13]
  solubility in water: water soluble
[14]
  flux of model penetrants through human skin: low flux
